Experimental findings from patent publication US7517884B2 (Kalypsys Inc., priority 1998, dated 2009) are described below.

Where only a bound is given, the exact number is not on record here.

Format in all cases: cell-based, murine and human
Common to all, as to conditions: GAL4-PPAR LBD chimera

Experiment [1] deals with T1, PPAR-delta (UniProt Q03181).
T1 sequence (Q03181 1-441): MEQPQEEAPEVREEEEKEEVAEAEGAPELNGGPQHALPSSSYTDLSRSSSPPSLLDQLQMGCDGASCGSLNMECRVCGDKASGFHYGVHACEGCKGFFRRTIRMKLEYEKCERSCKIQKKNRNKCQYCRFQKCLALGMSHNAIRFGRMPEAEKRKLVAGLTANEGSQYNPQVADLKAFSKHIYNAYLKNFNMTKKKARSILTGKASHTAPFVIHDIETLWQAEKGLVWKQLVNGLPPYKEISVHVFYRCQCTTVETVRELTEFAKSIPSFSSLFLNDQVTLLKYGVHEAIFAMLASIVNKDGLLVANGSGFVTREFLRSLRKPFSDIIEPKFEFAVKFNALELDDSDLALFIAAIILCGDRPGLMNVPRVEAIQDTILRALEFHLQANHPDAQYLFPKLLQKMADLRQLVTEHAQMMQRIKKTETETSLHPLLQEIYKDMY
Briefly: PPAR-delta transactivation assay (GAL4 chimera, luciferase reporter) in CV-1 cells. The procedure, abridged: (§1)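 CV-1 cells transiently transfected with murine or human PPAR-alpha, -gamma or -delta ligand-binding domain fused to GAL4 DNA-binding domain plus a GAL4-site luciferase reporter. After replating in phenol-red-free DME with 5% delipidated calf serum, cells were exposed to compound 20-24 h; luciferase read-out gave EC50.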

For experiment [2], the target named is T2, PPAR-alpha (UniProt Q07869).
T2 sequence (Q07869 1-468): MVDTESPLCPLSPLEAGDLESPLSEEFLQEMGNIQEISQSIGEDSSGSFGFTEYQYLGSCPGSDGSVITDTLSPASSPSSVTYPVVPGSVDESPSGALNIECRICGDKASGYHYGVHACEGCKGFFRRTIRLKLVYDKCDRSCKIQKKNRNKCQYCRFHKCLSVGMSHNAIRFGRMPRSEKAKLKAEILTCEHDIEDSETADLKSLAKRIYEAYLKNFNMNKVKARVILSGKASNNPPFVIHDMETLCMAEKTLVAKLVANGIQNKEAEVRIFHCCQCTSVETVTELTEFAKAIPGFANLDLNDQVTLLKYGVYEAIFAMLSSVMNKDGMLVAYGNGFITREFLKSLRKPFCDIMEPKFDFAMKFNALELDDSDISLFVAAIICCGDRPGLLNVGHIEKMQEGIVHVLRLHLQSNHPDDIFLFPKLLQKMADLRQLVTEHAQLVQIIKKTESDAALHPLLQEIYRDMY
The experiment in a line: PPAR-alpha transactivation assay (GAL4 chimera, luciferase reporter) in CV-1 cells. The procedure, abridged:
as §1
(In general: A reporter such as luciferase makes a cellular process visible.)

Experiment [3] concerns the target T3, PPAR-gamma (UniProt P37231).
T3 sequence (P37231 1-505): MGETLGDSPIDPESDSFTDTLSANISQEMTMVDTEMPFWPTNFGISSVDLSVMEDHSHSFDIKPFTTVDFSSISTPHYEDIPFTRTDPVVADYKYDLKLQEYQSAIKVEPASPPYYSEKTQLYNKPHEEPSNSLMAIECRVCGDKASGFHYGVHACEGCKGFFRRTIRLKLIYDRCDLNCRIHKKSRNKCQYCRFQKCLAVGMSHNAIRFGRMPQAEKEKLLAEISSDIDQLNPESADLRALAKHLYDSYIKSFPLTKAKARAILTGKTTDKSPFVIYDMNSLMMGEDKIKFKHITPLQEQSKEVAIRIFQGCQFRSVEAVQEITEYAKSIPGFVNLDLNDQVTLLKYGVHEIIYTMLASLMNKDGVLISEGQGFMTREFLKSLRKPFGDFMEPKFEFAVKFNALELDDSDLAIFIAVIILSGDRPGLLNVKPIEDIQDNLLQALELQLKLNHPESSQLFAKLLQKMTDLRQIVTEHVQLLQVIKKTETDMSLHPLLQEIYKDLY
The experiment in a line: PPAR-gamma transactivation assay (GAL4 chimera, luciferase reporter) in CV-1 cells. Summed up: as §1

The term EC50 denotes the concentration at which the effect is half-maximal. A high value points to weaker potency. As to `C[C@H]1CN(S(=O)(=O)c2ccc3c(c2)C(C(=O)O)CC3)CCN1c1ccc(Cl)c(Cl)c1` (stereo partly drawn) [Example 52, 6-[4-(3,4-dichloro-phenyl)-3-(S)-methyl-piperazine-1-sulfonyl]-indan-1-carboxylic acid], the EC50 in experiment [1], in experiment [2] and in experiment [3] was less than 5 µM in each case.

Take `C[C@H]1CN(S(=O)(=O)c2ccc3c(c2)C(C(=O)O)CC3)CCN1c1ccc(OC(F)(F)F)cc1` (stereo partly drawn) [Example 53, 6-[3-(S)-methyl-4-(4-trifluoromethoxy-phenyl)-piperazine-1-sulfonyl]-indan-1-carboxylic acid]: the EC50 in experiment [1], in experiment [2] and in experiment [3] was less than 5 µM each time.

`C[C@H]1CN(S(=O)(=O)c2ccc3c(c2)C(C(=O)O)CC3)CCN1c1ccc(C(F)(F)F)c(F)c1` (stereo partly drawn) [Example 54, 6-[4-(3-Fluoro-4-trifluoromethyl-phenyl)-3-(S)-Methyl-piperazine-1-sulfonyl]-indan-1-carboxylic acid]: the EC50 in experiment [1], in experiment [2] and in experiment [3] was less than 5 µM throughout.

As to `C[C@H]1CN(S(=O)(=O)c2ccc3c(c2)C(C(=O)O)CC3)CCN1c1ccc(C(F)(F)F)cn1` (stereo partly drawn) [Example 55], the EC50 in experiment [1], in experiment [2] and in experiment [3] was less than 5 µM each time.

Consider `CCC1CN(c2ccc(C(F)(F)F)c(Cl)c2)CCN1S(=O)(=O)c1ccc2c(c1)C(C(=O)O)CC2` (stereo not drawn) [Example 56, 6-[4-(3-chloro-4-trifluoromethyl-phenyl)-2-ethyl-piperazine-1-sulfonyl]-indan-1carboxylic acid], for which the EC50 in experiment [1], in experiment [2] and in experiment [3] was less than 5 µM each time.

As for `CCC1CN(c2ccc(OC(F)(F)F)cc2)CCN1S(=O)(=O)c1ccc2c(c1)C(C(=O)O)CC2` (stereo not drawn) [Example 57, 6-[2-ethyl-4-(4-trifluoromethoxy-phenyl)-piperazine-1-sulfonyl]-indan-1-carboxylic acid], the half-maximal effective concentration (EC50) in experiment [1], in experiment [2] and in experiment [3] was less than 5 µM in each case.

`CCC1CN(c2ccc(Cl)c(Cl)c2)CCN1S(=O)(=O)c1ccc2c(c1)C(C(=O)O)CC2` (stereo not drawn) [Example 58, 6-[4-(3,4-Dichloro-phenyl)-2-ethyl-piperazine-1-sulfonyl]-indan-1-carboxylic acid]: the results for the EC50 in experiment [1], in experiment [2] and in experiment [3] were less than 5 µM, less than 5 µM and 5 to 100 µM, respectively.

Turning to `CCC1CN(c2ccc(C(F)(F)F)c(F)c2)CCN1S(=O)(=O)c1ccc2c(c1)C(C(=O)O)CC2` (stereo not drawn) [Example 59, 6-[2-Ethyl-4-(3-fluoro-4-trifluoromethyl-phenyl)-piperazine-1-sulfonyl]-indan-1-carboxylic acid], the EC50 in experiment [1] is less than 5 µM; in experiment [2], less than 5 µM; in experiment [3], 5 to 100 µM.

In the case of `CCC1CN(c2ccc(C(F)(F)F)cc2F)CCN1S(=O)(=O)c1ccc2c(c1)C(C(=O)O)CC2` (stereo not drawn) [Example 60, 6-[2-Ethyl-4-(2-fluoro-4-trifluoromethyl-phenyl)-piperazine-1-sulfonyl]-indan-1-carboxylic acid], the EC50 in experiment [1] was less than 5 µM; in experiment [2], less than 5 µM; in experiment [3], 5 to 100 µM.

As for `C[C@H]1CN(c2ccc(Cl)c(Cl)c2)CCN1S(=O)(=O)c1ccc2c(c1)C(C(=O)O)CC2` (stereo partly drawn) [Example 61, 6-[4-(3,4-Dichloro-phenyl)-(S)-methyl-piperazine-1-sulfonyl]-indan-1-carboxylic acid], the EC50 in experiment [1], in experiment [2] and in experiment [3] was less than 5 µM each time.

Consider `C[C@H]1CN(c2ccc(OC(F)(F)F)cc2)CCN1S(=O)(=O)c1ccc2c(c1)C(C(=O)O)CC2` (stereo partly drawn) [Example 62, 6-[2-(S)-Methyl-4-(4-trifluoromethoxy-phenyl)-piperazine-1-sulfonyl]-indan-1-carboxylic acid], for which the EC50 in experiment [1] was less than 5 µM; in experiment [2] it was less than 5 µM; in experiment [3], 5 to 100 µM.

For `C[C@H]1CN(c2ccc(C(F)(F)F)c(F)c2)CCN1S(=O)(=O)c1ccc2c(c1)C(C(=O)O)CC2` (stereo partly drawn) [Example 63, 6-[4-(3-Fluoro-4-trifluoromethyl-phenyl)-2-(S)-methyl-piperazine-1-sulfonyl]-indan-1-carboxylic acid], the EC50 in experiment [1], in experiment [2] and in experiment [3] was less than 5 µM throughout.

In the case of `CCC1CN(S(=O)(=O)c2ccc3c(c2)C(C(=O)O)CC3)CCN1c1ccc(C(F)(F)F)cn1` (stereo not drawn) [Example 64, 6-[3-Ethyl-4-(5-trifluoromethyl-pyrdin-2-yl)-piperazine-1-sulfonyl]-indan-1-carboxylic acid], the EC50 in experiment [1], in experiment [2] and in experiment [3] was less than 5 µM in each case.

As for `C[C@@H]1CN(S(=O)(=O)c2ccc3c(c2)C(C(=O)O)CC3)C[C@H](C)N1c1ccc(C(F)(F)F)cn1` (stereo partly drawn) [Example 65, 6-[cis-3,5-dimethyl-4-(5-trifluoromethyl-pyrdin-2-yl)-piperazine-1-sulfonyl]-indan-1-carboxylic acid], the EC50 in experiment [1], in experiment [2] and in experiment [3] was less than 5 µM throughout.

As for `O=C(O)C1CCc2ccc(S(=O)(=O)N3CC=C(c4ccc(C(F)(F)F)cn4)CC3)cc21` (stereo not drawn) [Example 66, 6-(5-Trifluoromethyl-3,6-dihydro-2H-|2,4|bipyridinyl-1-sulfonyl)-indan-1-carboxylic acid], the EC50 in experiment [1] was less than 5 µM; in experiment [2], less than 5 µM; in experiment [3], 5 to 100 µM.

Take `O=C(O)C1CCc2ccc(S(=O)(=O)N3CCCN(c4ccc(C(F)(F)F)cn4)CC3)cc21` (stereo not drawn) [Example 67, 6-[4-(5-trifluoromethyl-pyridin-2-yl)-[1,4]diazepane-1-sulfonyl]-indan-1-carboxylic acid]: the EC50 in experiment [1], in experiment [2] and in experiment [3] was less than 5 µM throughout.

`C[C@H]1CN(c2ccc(C(F)(F)F)cn2)C[C@H](C)N1S(=O)(=O)c1ccc2c(c1)C(C(=O)O)CC2` (stereo partly drawn) [Example 68, 6-[trans-2,6-(S,S)-dimethyl-4-(5-trifluoromethyl-pyrdin-2-yl)-piperazine-1-sulfonyl]-indan-1-carboxylic acid]: the EC50 in experiment [1], in experiment [2] and in experiment [3] was less than 5 µM each time.

In the case of `C[C@H]1CN(S(=O)(=O)c2ccc3c(c2)C(C(=O)O)CC3)C[C@H](C)N1c1ccc(C(F)(F)F)cn1` (stereo partly drawn) [Example 69, 6-[trans-3,5-(S,S)-dimethyl-4-(5-trifluoromethyl-pyrdin-2-yl)-piperazine-1-sulfonyl]-indan-1-carboxylic acid], the EC50 in experiment [1], in experiment [2] and in experiment [3] was less than 5 µM in each case.

With `C[C@@H]1CN(c2ccc(C(F)(F)F)c(F)c2)C[C@H](C)N1S(=O)(=O)c1ccc2c(c1)C(C(=O)O)CC2` (stereo partly drawn) [Example 70, 6-[cis-2,6-dimethyl-4-(3-fluoro-4-trifluoromethyl-phenyl)-piperazine-1-sulfonyl]-indan-1-carboxylic acid], the EC50 is less than 5 µM in experiment [1], less than 5 µM in experiment [2] and 5 to 100 µM in experiment [3].

Regarding `O=C(O)C1CCc2ccc(S(=O)(=O)N3CCN(c4ccc(OC(F)(F)F)cc4)CC3)cc21` (stereo not drawn) [Example 71, 6-[4-(4-trifluoromethoxy-phenyl)-piperazine-1-sulfonyl]-indan-1-carboxylic acid], the EC50 in experiment [1], in experiment [2] and in experiment [3] was less than 5 µM in each case.

For the molecule `CCC1CN(c2ccc(C(F)(F)F)cn2)CCN1S(=O)(=O)c1ccc2c(c1)C(C(=O)O)CC2` (stereo not drawn) [Example 72, 6-[2-ethyl-4-(5-trifluoromethyl-pyridin-2-yl)-piperazine-1-sulfonyl]-indan-1-carboxylic acid], the EC50 in experiment [1], in experiment [2] and in experiment [3] was less than 5 µM throughout.
